# Source: patent publication US20230000813A1, “COMPOUND FOR THE TREATMENT OF BOVINE OR SWINE RESPIRATORY DISEASE” (Intervet Inc., priority 2016, published 2023)
# Marks after values point to notes of the source that are not given here.
# How the values were obtained:
# [1] = tested on: 15 isolates of H. parasuis; assay: MIC50/MIC90, agar-dilution method (GC agar base); assay type: cell-based; details: Haemophilus parasuis
# Protocol: The in vitro activity of 3 representative compounds of this invention against 15 isolates of H. parasuis was determined. All strains were isolated from the respiratory tract of swine in different European countries The MICs for all isolates were determined by using the agar-dilution method according to CLSI document VET01-A4 [1]with the following modification: GC agar base was used instead of Mueller-Hinton agar base for the preparation of the agar-dilution plates. Results were interpreted according to the CLSI document VET01-S3.
# M. haemolytica = assay: Mannheimia haemolytica cattle lung infection model, efficacy (Example 10); assay type: in vivo, cattle calves; details: for Food consumption, cumulated for all animals in the group: 3 calves; for Bacteriological Cure (x of n) / Survival (x of n): calves infected with M. haemolytica, SC, single
# Protocol: Unless otherwise described the study was conducted as described in Clinical Example 8
# Calves were infected via intratracheal instillation of appr. 300 mL of M. haemolytica PBS suspension containing approximately 4×10^9 CFU M. haemolytica in late log phase on Day 0.
# One hour later three animals each were treated with 10 mg/kg of Compound 231(referred to as C. 231) (80 mg/mL in 10% Poloxamer 188), or 10 mg/kg or 5 mg/kg Compound 329 (referred to as C. 329) (150 mg/mL in 35% Cavitron).
# The following clinical findings were recorded: The general behavior scores of the animals before (DO am) and after infection with M. haemolytica in the different treated and control groups are indicated in FIG. 8-1: 0=normal; 1=slightly depressive, 2=moderately depressive, 3=highly depressive, 4=recumbency.
# The following pathomorphological findings after section on Day 2 were recorded: After measuring the body weight and the lung weight the Lung body mass ratio was calculated as shown in FIG. 8-2. A healthy animal has a lung body mass ration around 1.7 or lower. The area percentage of lung consolidations compared to the total lung tissue and the lung score determined that is a combined score of such percentage of lung consoldiations and the grade. For the “grade” the degree of lung consolidation score was graded from 0 to 3 for each of eight lung lobes: 0 no visible changes, 1 low graded colour changes or induration, 2 medium graded induration, 3 high graded induration, hepatisation, necrosis.
# The geometrical means (CFU/g tissue) of bacteriological re-isolations of Mannheimia haemolytica from lung tissue are illustrated in FIG. 8-4.
# [2] = tested on: naturally occurring bovine respiratory disease (BRD); assay: Treatment of naturally occurring bovine respiratory disease under U.S. feedlot conditions (Example 11); assay type: in vivo, weaned beef cattle calves
# Source text: The effectiveness and safety of compound 329 for the treatment of naturally occurring bovine respiratory disease (BRD) under typical U.S. feedlot conditions when administered subcutaneously was investigated. The therapeutic efficacy of the two antibacterials was compared to a negative control group (sterile saline) and a positive control group (Nuflor® Injectable Solution).
# Weaned beef cattle calves (crossbreds of Angus, Charolais and Limousin) were enrolled in the study and were allocated to groups of 20 animals per treatment group. Calves were enrolled in the study with body weights that ranged from 123 to 262 kg.
# The bovine respiratory disease observed in this 10-day natural infection study was moderate to severe across the treatment groups and typical of that observed in commercial feed yards in the U.S.
# Animals were dosed subcutaneously once on the day of enrollment (Day 0) with compound 329 or the control groups. Compound 329 was dosed at 10 mg/kg body weight. Nuflor® was dosed at 40 mg/kg body weight. Sterile saline was dosed at 2 mL/15 kg body weight.
# [3] = D 0 to D 10, 20 calves per group, C. 329 10 mg/kg, Nuflor 40 mg/kg SC once
# [4] = natural BRD, 20 calves per group, SC once on Day 0: C. 329 10 mg/kg, Nuflor 40 mg/kg
# [5] = natural BRD, calves removed before D 10 included, C. 329 10 mg/kg, Nuflor 40 mg/kg SC once
smiles,measurement,setting,value
CC(C)(N)C(NC(=O)c1ccc(C#Cc2ccc(CNC3CC3)cc2)cc1)C(=O)NO (stereo not drawn) [C. 329],MIC50,[1],2 µg/mL
same,MIC90,[1],4 µg/mL
same,"Food consumption, cumulated for all animals in the group","M. haemolytica; D 0 am, after infection and treatment, 5 mg/kg",1213 g
same,"Food consumption, cumulated for all animals in the group","M. haemolytica; D 0 am, after infection and treatment, 10 mg/kg",1800** g
same,"Food consumption, cumulated for all animals in the group","M. haemolytica; D 0 pm, 5 mg/kg",4800 g
same,"Food consumption, cumulated for all animals in the group","M. haemolytica; D 0 pm, 10 mg/kg",4800 g
same,"Food consumption, cumulated for all animals in the group","M. haemolytica; D +1 am, 5 mg/kg",4800 g
same,"Food consumption, cumulated for all animals in the group","M. haemolytica; D +1 am, 10 mg/kg",4800 g
same,"Food consumption, cumulated for all animals in the group","M. haemolytica; D +1 pm, 5 mg/kg",4800 g
same,"Food consumption, cumulated for all animals in the group","M. haemolytica; D +1 pm, 10 mg/kg",4800 g
same,"Food consumption, cumulated for all animals in the group","M. haemolytica; D −1 (before infection), 5 mg/kg",4800 g
same,"Food consumption, cumulated for all animals in the group","M. haemolytica; D −1 (before infection), 10 mg/kg",4800 g
same,Bacteriological Cure (x of n),M. haemolytica; 5 mg/kg BW,1/3
same,Survival (x of n),M. haemolytica; 5 mg/kg BW,3/3
same,Bacteriological Cure (x of n),M. haemolytica; 10 mg/kg BW,3/3
same,Survival (x of n),M. haemolytica; 10 mg/kg BW,3/3
same,efficacy against an artificial lung infection with M. haemolytica in the calf,"M. haemolytica; tested dosages 10 mg/kg for C 231 and 10 mg/kg and 5 mg/kg for C 329, conclusion in words",effective
same,"Efficacy in a field like setting, naturally occurring BRD","[2]; 10 mg/kg SC once, compared to saline and Nuflor, conclusion in words",demonstrated
same,Mortalities during the study,"[2]; 10-day natural BRD study, C. 329 10 mg/kg, Nuflor 40 mg/kg SC once",5%
same,"Removals from the study, Percentage",[2]; [3],5%
same,"Removals from the study, Total",[2]; [3],1
same,"Removals from the study, D 0",[2]; [4],0
same,"Removals from the study, D 1",[2]; [4],0
same,"Removals from the study, D 2",[2]; [4],0
same,"Removals from the study, D 3",[2]; [4],0
same,"Removals from the study, D 4",[2]; [4],0
same,"Removals from the study, D 5",[2]; [4],0
same,"Removals from the study, D 6",[2]; [4],0
same,"Removals from the study, D 7",[2]; [4],0
same,"Removals from the study, D 8",[2]; [4],0
same,"Removals from the study, D 9",[2]; [4],1
same,"Removals from the study, D 10",[2]; [4],0
same,Average Body weight on D 0,"[2]; natural BRD, day of enrollment, C. 329 10 mg/kg, Nuflor 40 mg/kg SC once",401.2 lb
same,Average Body weight on last day in study,[2]; [5],406.3 lb
same,Average daily body weight gain,[2]; [5],0.5 lb
same,daily body weight gains over the study period,"[2]; natural BRD, in words",positive daily body weight gains
